Where two headings read alike, the source gives them in different places.
Assays:
[1] = Anti-metabolic effect (MTS) in replicon cells; settings: human
Procedure: (§1) Dilution series are prepared; each dilution series is performed in at least duplicate.
(§2) The selectivity index (SI), indicative of the therapeutic window of the compound, is calculated as CC50/EC50.
(§3) Compounds were analysed in the genotype 1b replicon assay using Huh5.2 cells as described in the General Methods.

[2] = tested on: HCV genotype 1b I389luc-ubi-neo/NS3-3'/5.1 replicon in Huh5.2 cells; assay: HCV genotype 1b replicon assay, antiviral effect (luciferase); assay type: cell-based, Hepatitis C virus; settings: for EC50: Hepatitis C virus, Huh-5-2, 72 h; for Selectivity index (CC50/EC50): Huh5.2 replicon assay
Procedure: as §1
For the evaluation of antiviral effects, assay medium is aspirated and the cell monolayers are washed with PBS. The wash buffer is aspirated, 25 μL of Glo Lysis Buffer (Cat. No. E2661, Promega) is added after which lysis is allowed to proceed for 5 min at room temperature. Subsequently, 50 μL of Luciferase Assay System (Cat. No. E1501, Promega) is added and the luciferase luminescence signal is quantified immediately (1000 ms integration time/well, Safire^2, Tecan). Relative luminescence units are converted to percentage of untreated controls.
as §2, §3

[3] = Mouse in vivo oral and iv PK; settings: male, CD1 mice, whole blood; for clearance: iv at 1 mg/kg; for AUC(0-t): read-out: po AUClast
Procedure: For sanglifehrin analogues, whole blood is analysed. Compounds are formulated in 5% ethanol/5% cremophor EL/90% saline for both p.o. and i.v. administration. Groups of 3 male CD1 mice are dosed with either 1 mg/kg i.v. or 5 or 10 mg/kg p.o. Blood samples (40 μL) are taken via saphenous vein, pre-dose and at 0.25, 0.5, 2, 8, and 24 hours, and diluted with an equal amount of dH20 and put on dry ice immediately. Samples are stored at −70° C. until analysis. The concentration of the compound of the invention or parent compound in the sample is determined via LCMS as follows: 20 μL of blood:H2O (1:1, v/v)/PK sample is added with 20 μL Internal standard (hydroxyl macrocycle, 6) at 100 ng/mL, 20 μL working solution/MeOH and 150 μL of ACN, vortexed for 1 minute at 1500 rpm, and centrifuged at 12000 rpm for 5 min. The supernatant is then injected into LC-MS/MS. The time-course of blood concentrations is plotted and used to derive area under the whole blood concentration-time curve (AUC—which is directly proportional to the total amount of unchanged drug that reaches the systemic circulation). These values are used to generate PK parameters where possible.
To assess the pharmacokinetics of the compounds in an in vivo setting, compounds were dosed po at 10 or 5 mg/kg and iv at 1 mg/kg to groups of CD1 mice. Pharmacokinetic analysis was carried out as described in the general methods. The PK parameters are shown below.

[4] = tested on: HIV; assay: microbe, parasite or virus in culture; assay type: cell-based; settings: Human immunodeficiency virus 1, HeLa, read-out: HeLa cells EC50
Procedure: Briefly, human PBMCs were purified from fresh blood by banding on Ficoll-Hypaque (30 min, 800 g, 25° C.). Primary human CD4+ T cells were purified from PBMCs by positive selection with anti-CD4 Dynabeads and subsequent release using Detachabead. […] Three days after stimulation, cells were split 1:2 in medium containing IL-2 (200 units/ml final concentration). Cultures were then split 1:2 every 2 days in IL-2 medium and infected with HIV at 7 days after stimulation. […] To obtain monocyte-derived macrophages, cells were allowed to adhere to plastic and cultured for 6 days to allow differentiation.
CD4+ HeLa cells, Jurkat cells, activated CD4+ peripheral blood T-lymphocytes and macrophages (500,000 cells/100 μL) were incubated with pNL4.3-GFP (X4 virus) or pNL4.3-BaL-GFP (R5 virus) (100 ng of p24) in the presence of increasing concentrations of test article, Forty-eight hours later, infection was scored by analyzing the percentage of GFP-positive cells by FACS and EC50 calculated.
Compounds were analysed in an HIV antiviral assay using HeLa cells as described in the General Methods.

[5] = target: Bile Salt Export Pump (BSEP) (Homo sapiens (Human), UniProt O95342); assay: Vesicular efflux transporter inhibition, BSEP; assay type: biochemical; settings: membrane vesicles, probe taurocholate
Procedure: Relative activities were calculated with the following equation: […]

[6] = target: MRP2 (Homo sapiens (Human), UniProt Q92887); assay: Vesicular efflux transporter inhibition, MRP2
Procedure: (§4) To assess the inhibition of the MRP2, MRP3 and BSEP efflux transporters, an in vitro vesicular transporter assay from Solvo Biotechnology Inc. was used. […] In the case of MRP2 and MRP3 transporters reactions were carried out in the presence of 2 mM glutathione. Reaction mixtures were preincubated for ten minutes at 37° C. Reactions were started by the addition of 25 μl of 12 mM MgATP (4 mM final concentration in assay) or assay buffer for background controls. Reactions were stopped by adding 200 μl of ice-cold washing buffer and immediately followed by filtration on glass fiber filters in a 96-well format (filter plate). Scintillation buffer was added to the washed and dried filter plate and scintillation was counted subsequently. Probe substrates were taurocholate (2 μM) for BSEP vesicles and E217βG (1 μM) for MRP2 and MRP3 vesicles. For all wells the translocated amount of the probe substrate was determined in cpm units. Relative activities were calculated with the following equation:
(§5) Activity %=(A−B)/(C−D)×100 Where A=translocated amount of substrate in the presence of TA and ATP, B=translocated amount of substrate in the presence of TA, C=translocated amount of substrate in the presence of solvent and ATP and D=translocated amount of substrate in the presence of solvent. […]

[7] = target: OATP1B3 (Homo sapiens (Human), UniProt Q9NPD5); assay: Uptake transporter inhibition, OATP1B3; assay type: cell-based; settings: CHO cells, probe substrate Fluo-3
Procedure: (§6) To assess the inhibition of the […] and OAT1B3 uptake transporters, an in vitro uptake transporter assay from Solvo Biotechnology Inc. was used. […] Parental cell line CHO-K was used as negative control. […] Before experiments the medium was aspirated by vacuum suction, cells were washed with 2×100 μl of Krebs-Henseleit buffer pH 7.3 (prepared from Sigma chemicals, Sigma-Aldrich, St Louis, Mo.). Uptake experiments were carried out at 37° C. in 50 μl of Krebs-Henseleit buffer (pH 7.3) containing the probe substrate and the TA or solvent, respectively. […] The probe substrate for the OATP1B1 assay was E3S (0.1 μM) and for the OATP1B3 assay was Fluo-3 (10 μM). The translocated amount of probe substrate was determined for each well in cpm. Relative activities were calculated from the equation: Activity%=(A−B)/(C−D)×100

[8] = target: P-glycoprotein (Pgp/MDR1) (Homo sapiens (Human), UniProt P08183); assay: Inhibition of Pgp transporter using MDR1-MDCK cells; assay type: cell-based; settings: loperamide substrate
Procedure: To assess the inhibition of the P-glycoprotein (Pgp/MDR1) transporter, an in vitro ATPase assay from Cyprotex was used. MDR1—MDCK cells obtained from the NIH (Rockville, Md., USA) were used. Following culture, the monolayers were prepared by rinsing both basolateral and apical surfaces twice with buffer at pH 7.4 and 37° C. […] For the apical to basolateral study (A-B), buffer at pH 7.4 was removed from the apical compartment and replaced with loperamide dosing solutions before being placed in the ‘companion’ plates. The solutions were prepared by diluting loperamide in DMSO with buffer to give a final loperamide concentration of 5 μM (final DMSO concentration adjusted to 1%). The fluorescent integrity marker Lucifer yellow was also included in the dosing solution. The experiment was performed in the presence and absence of the test compound (applied to both the apical and basolateral compartments). For basolateral to apical (B-A) study, the P-glycoprotein substrate, loperamide (final concentration=5 μM) was placed in the basolateral compartment. The experiment was performed in the presence and absence of the test compound (applied to the apical and basolateral compartments). […] The test compound was assessed at 0.1, 0.3, 1, 3, 10, 30 and 50 μM. […] After analysis, an IC50 was calculated (i.e., inhibitor concentration (test drug) achieving half maximal inhibition effect).

[9] = target: CypA (Homo sapiens (Human), UniProt P62937); assay: biochemical
Procedure: An alternative methodology for analysing interaction with cyclophilins is described as follows: The PPlase activity of recombinant CypA or D, produced by thrombin cleavage of GST-CypA or D, was determined by following the rate of hydrolysis of N-succinyl-Ala-Ala-Pro-Phe-p-nitroanilide by chymotrypsin. Chymotrypsin only hydrolyzes the trans form of the peptide, and hydrolysis of the cis form, the concentration of which is maximized by using a stock dissolved in trifluoroethanol containing 470 mM LiCl, is limited by the rate of cis-trans isomerization. CypA or D was equilibrated for 1 h at 5° C. with selected test article using a drug concentration range from 0.1 to 20 nM. The reaction was started by addition of the peptide, and the change in absorbance was monitored spectrophotometrically at 10 data points per second. The blank rates of hydrolysis (in the absence of CypA or D) were subtracted from the rates in the presence of CypA or D. The initial rates of the enzymatic reaction were analyzed by first-order regression analysis of the time course of the change in absorbance.
To assess the direct inhibition of CypA Peptidyl Prolyl cis-trans Isomerase (PPlase) activity, a method was used as described in the general methods.

[10] = target: MRP3 (Homo sapiens (Human), UniProt O15438); assay: Vesicular efflux transporter inhibition, MRP3
Procedure: as §4, §5

[11] = target: OATP1B1 (Homo sapiens (Human), UniProt Q9Y6L6); assay: Uptake transporter inhibition, OATP1B1; assay type: cell-based; settings: CHO cells, probe substrate E3S
Procedure: as §6

[12] = tested on: HBV; settings: Ptak et al. 2008; read-out: IC50 against HBV; cited from earlier work
[13] = tested on: Huh5.2 cells; assay: Anti-metabolic effect (MTS) in replicon cells; settings: Huh5.2 cells, MTS, 72 hours
Procedure: as §1, §2, §3

Question: What does the source list for `CC[C@H]1C[C@H](C)[C@@]2(NC1=O)O[C@@H](C[C@H](O)[C@@H](C)CC/C=C/C=C(\C)[C@@H]1C/C=C/C=C/[C@H](O)[C@H](C)[C@@H](O)[C@@H](CCC(C)=O)C(=O)N[C@@H](C(C)C)C(=O)N[C@@H](Cc3cccc(O)c3)C(=O)N3CCC[C@H](N3)C(=O)O1)[C@H](C)[C@H](O)[C@@H]2C` [Sanglifehrin A, 5, Sanglifehrin A]?
Answer: CC50 at 72 h [1]: 9100 nM; EC50 [2]: 318 nM; clearance [3]: 0.9 mL/min/kg; AUC(0-t) ([3]; po 10 mg/kg): 2330 ng·h/mL

Question: With `Nc1nc(=O)n([C@@H]2CS[C@H](CO)O2)cc1F` [Emtricitabine] as the molecule, how does the EC50 [4] read?
Answer: 400 nM

Question: Which IC50 [5] does the source give for `CC(=O)CC[C@H]1C(=O)N[C@@H](C(C)C)C(=O)N[C@@H](Cc2cc(O)cc(F)c2)C(=O)N2CCCC(N2)C(=O)O[C@H](/C(C)=C/C=C/C(=O)N2CCCCO2)C/C=C/C=C/[C@H](O)[C@H](C)[C@H]1O` (stereo partly drawn) [Compound 24] here?
Answer: 12300 nM

Question: What about the IC50 [6] of the same molecule?
Answer: > 50000 nM

Question: What about the EC50 [4] of the same molecule?
Answer: 130 nM

Question: And the CC50 at 72 h [1]?
Answer: > 100000 nM

Question: What about the IC50 [7] of the same molecule?
Answer: 1800 nM

Question: What about the IC50 [8] of the same molecule?
Answer: > 50000 nM

Question: And the IC50 [9]?
Answer: 0.31 nM

Question: And the IC50 [10]?
Answer: > 50000 nM

Question: And the EC50 [2]?
Answer: 33 nM

Question: What about the “Selectivity index (CC50/EC50)” value [2] of the same molecule?
Answer: >3030

Question: And the IC50 [11]?
Answer: 4300 nM

Question: What about the clearance [3] of the same molecule?
Answer: 0.283 mL/min/kg

Question: What about the AUC(0-t) ([3]; po 5 mg/kg) of the same molecule?
Answer: 8220 ng·h/mL

Question: For `C/C=C/C[C@@H](C)[C@@H](O)[C@H]1C(=O)N[C@@H](CC)C(=O)N(C)[C@H](C)C(=O)N(CC)[C@@H](C(C)C)C(=O)N[C@@H](C(C)C)C(=O)N(C)[C@@H](CC(C)C)C(=O)N[C@@H](C)C(=O)N[C@H](C)C(=O)N(C)[C@@H](CC(C)C)C(=O)N(C)[C@@H](CC(C)C)C(=O)N(C)[C@@H](C(C)C)C(=O)N1C` [DEBIO-025, 2, DEBIO-025], which IC50 [5] is on record?
Answer: 180 nM

Question: What about the IC50 [6] of the same molecule?
Answer: 16000 nM

Question: And the IC50 [12]?
Answer: 4100 nM

Question: And the EC50 [4]?
Answer: 1500 nM

Question: What about the CC50 [13] of the same molecule?
Answer: 11200 nM

Question: What about the IC50 [7] of the same molecule?
Answer: 190 nM

Question: And the IC50 [8]?
Answer: 720 nM

Question: What about the IC50 ([9]; read-out: CypA PPIase IC50, recombinant CypA) of the same molecule?
Answer: 0.8 nM

Question: What about the IC50 [10] of the same molecule?
Answer: > 50000 nM

Question: And the EC50 [2]?
Answer: 96 nM

Question: And the “Selectivity index (CC50/EC50)” value [2]?
Answer: 111

Question: And the IC50 [11]?
Answer: 450 nM

Question: For `CC(=O)CC[C@H]1C(=O)N[C@@H](C(C)C)C(=O)N[C@@H](Cc2cccc(O)c2)C(=O)N2CCC[C@H](N2)C(=O)O[C@H](/C(C)=C/CO)C/C=C/C=C/[C@H](O)[C@H](C)[C@H]1O` [Hydroxymacrocycle, 6], which CC50 at 72 h [1] is on record?
Answer: 83600 nM

Question: What about the EC50 [2] of the same molecule?
Answer: 8400 nM

Question: And the “Selectivity index (CC50/EC50)” value [2]?
Answer: 9.9
